What was measured:
[1] = biological target: T1, human histamine H3 receptor (Homo sapiens, UniProt Q9Y5N1); test: Histamine H3 functional antagonist assay (method C); format: biochemical; details: [35S]GTPγS LeadSeeker SPA, CHO membranes, histamine at EC80, 384 well, compound in DMSO; read-out: antagonism pKb, histamine H3 functional antagonist assay (method C) (converted)
T1 construct: expressed in transfected cells; host or cells: CHO K1 cells carrying the pSwitch regulatory plasmid, transfected with pGeneH3 and induced with mifepristone; clone 3H3; membranes prepared from these cells
Source text: (§1) A membrane preparation containing histamine H3 receptors may be prepared in accordance with the following procedures:
(§2) DNA encoding the human histamine H3 gene (Huvar, A. et al. (1999) Mol. Pharmacol. 55(6), 1101-1107) was cloned into a holding vector, pCDNA3.1 TOPO (InVitrogen) and its cDNA was isolated from this vector by restriction digestion of plasmid DNA with the enzymes BamH1 and Not-1 and ligated into the inducible expression vector pGene (InVitrogen) digested with the same enzymes. The GeneSwitch™ system (a system where in transgene expression is switched off in the absence of an inducer and switched on in the presence of an inducer) was performed as described in U.S. Pat. Nos. 5,364,791; 5,874,534; and 5,935,934. […]
(§3) 10-14 days post selection 10 nM Mifepristone (InVitrogen), was added to the culture medium to induce the expression of the receptor. […] Receptor bound antibody was detected by incubation of the cells for 60 minutes on ice with a goat anti rabbit antibody, conjugated with Alexa 488 fluorescence marker (Molecular Probes). Following two further washes with Sorting Medium, cells were filtered through a 50 μm Filcon™ (BD Biosciences) and then analysed on a FACS Vantage SE Flow Cytometer fitted with an Automatic Cell Deposition Unit. […]

[2] = biological target: T1, human histamine H3 receptor; test: Histamine H3 functional antagonist assay (method B); format: biochemical; details: [35S]GTPγS LeadSeeker SPA, CHO membranes, histamine at EC80, 384 well; read-out: antagonism pKb, histamine H3 functional antagonist assay (method B) (converted)
Source text: as §1
DNA encoding the human histamine H3 gene (Huvar, A. et al. (1999) Mol. Pharmacol. 55(6), 1101-1107) was cloned into a holding vector, pCDNA3.1 TOPO (InVitrogen) and its cDNA was isolated from this vector by restriction digestion of plasmid DNA with the enzymes BamH1 and Not-1 and ligated into the inducible expression vector pGene (InVitrogen) digested with the same enzymes. The GeneSwitch™ system (a system where in transgene expression is switched off in the absence of an inducer and switched on in the presence of an inducer) was performed as described in U.S. Pat. Nos. 5,364,791; 5,874,534; and 5,935,934. Ligated DNA was transformed into competent DH5α E. coli host bacterial cells and plated onto Luria Broth (LB) agar containing Zeocin™ (an antibiotic which allows the selection of cells expressing the sh ble gene which is present on pGene and pSwitch) at 50 μg ml^−1. Colonies containing the re-ligated plasmid were identified by restriction analysis. DNA for transfection into mammalian cells was prepared from 250 ml cultures of the host bacterium containing the pGeneH3 plasmid and isolated using a DNA preparation kit (Qiagen Midi-Prep) as per manufacturers guidelines (Qiagen). […]
as §3

[3] = biological target: T1, human histamine H3 receptor; test: Histamine H3 functional antagonist assay (method A); format: biochemical; details: [35S]GTPγS SPA, CHO membranes, histamine 0.3 μM, 96 well
Source text: as §1, §2, §3

[4] = biological target: T2, human H1 receptor (Homo sapiens, UniProt P35367); test: Histamine H1 functional antagonist assay (method A); format: cell-based; details: FLIPR, FLUO4AM, suppression of histamine induced increase in fluorescence; read-out: antagonism pKb, histamine H1 functional antagonist assay (method A) (converted)
T2 construct: expressed in transfected cells; host or cells: Chinese hamster ovary cells stably expressing the human H1 receptor
Protocol: A histamine H1 cell line may be generated in accordance with the following procedure:
The human H1 receptor was cloned using known procedures described in the literature [Biochem. Biophys. Res. Commun. 1994, 201(2), 894]. Chinese hamster ovary cells stably expressing the human H1 receptor were generated according to known procedures described in the literature [Br. J. Pharmacol. 1996, 117(6), 1071].
(IV) Histamine H1 Functional Antagonist Assay (Method A)
The compound is assayed in a black walled clear bottom 384-well plate with cells seeded at 10000 cells/well. Tyrodes buffer is used throughout (NaCl 145 mM, KCl 2.5 mM, HEPES 10 mM, glucose 10 mM, MgCl2 1.2 mM, CaCl2 1.5 mM, probenecid 2.5 mM, pH adjusted to 7.40 with NaOH 1.0 M). Each well is treated with 10 μl of a solution of FLUO4AM (10 μM in Tyrodes buffer at pH 7.40) and plates are then incubated for 60 minutes at 37° C. Wells are then washed with Tyrodes buffer using a EMBLA cell washer system, leaving 40 μl buffer in each well, and then treated with 10 μl of test compound in Tyrodes buffer. […]
Functional antagonism is indicated by a suppression of histamine induced increase in fluorescence, as measured by the FLIPR system (Molecular Devices). By means of concentration effect curves, functional potencies are determined using standard pharmacological mathematical analysis.

T1 sequence (Q9Y5N1 whole entry): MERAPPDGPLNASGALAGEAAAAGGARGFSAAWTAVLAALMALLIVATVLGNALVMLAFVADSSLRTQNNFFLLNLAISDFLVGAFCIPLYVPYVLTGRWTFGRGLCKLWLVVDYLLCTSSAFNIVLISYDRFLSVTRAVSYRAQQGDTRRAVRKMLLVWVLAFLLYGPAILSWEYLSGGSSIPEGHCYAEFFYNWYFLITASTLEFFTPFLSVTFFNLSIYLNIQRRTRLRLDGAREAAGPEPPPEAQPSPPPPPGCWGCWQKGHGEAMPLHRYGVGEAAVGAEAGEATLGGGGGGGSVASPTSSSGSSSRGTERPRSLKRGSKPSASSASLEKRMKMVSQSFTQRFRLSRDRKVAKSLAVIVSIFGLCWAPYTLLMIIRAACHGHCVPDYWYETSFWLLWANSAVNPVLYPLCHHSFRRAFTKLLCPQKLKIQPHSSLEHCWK
T2 sequence (P35367 whole entry): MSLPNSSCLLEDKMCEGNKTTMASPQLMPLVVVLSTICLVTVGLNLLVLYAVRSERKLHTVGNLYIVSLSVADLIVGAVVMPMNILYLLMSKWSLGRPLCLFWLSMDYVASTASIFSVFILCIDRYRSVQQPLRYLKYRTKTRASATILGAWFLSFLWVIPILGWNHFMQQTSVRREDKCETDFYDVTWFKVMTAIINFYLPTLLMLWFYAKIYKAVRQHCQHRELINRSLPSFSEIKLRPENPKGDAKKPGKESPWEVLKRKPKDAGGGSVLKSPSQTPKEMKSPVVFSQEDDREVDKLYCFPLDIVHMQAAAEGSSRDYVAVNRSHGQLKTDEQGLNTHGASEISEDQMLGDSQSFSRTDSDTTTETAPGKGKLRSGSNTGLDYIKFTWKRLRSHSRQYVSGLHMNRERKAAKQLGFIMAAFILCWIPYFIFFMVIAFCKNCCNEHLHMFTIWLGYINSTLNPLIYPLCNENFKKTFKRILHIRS

Kb [1] [nM]	Kb [2] [nM]	SMILES	further results
< 1	–	CCC(C)N1CCc2ccc(Oc3ccc(N4CCCC4=O)cn3)cc2CC1 (centres unmarked) [Example E15, 1-(6-{[3-(1-Methylpropyl)-2,3,4,5-tetrahydro-1H-3-benzazepin-7-yl]oxy}-3-pyridinyl)-2-pyrrolidinone]	–
< 1	< 1	O=C1CCCN1c1cnc(Oc2ccc3c(c2)CCN(CC2CC2)CC3)cn1 [Example E1, 1-(5-{[3-(Cyclopropylmethyl)-2,3,4,5-tetrahydro-1H-3-benzazepin-7-yl]oxy}-2-pyrazinyl)-2-pyrrolidinone]	–
–	< 1	O=C1CCCN1c1ccc(Oc2ccc3c(c2)CCN(CC2CC2)CC3)nc1 [Example E13, 1-(6-{[3-(Cyclopropylmethyl)-2,3,4,5-tetrahydro-1H-3-benzazepin-7-yl]oxy}-3-pyridinyl)-2-pyrrolidinone]	–
–	–	c1cc2c(cc1OCCCC1CCCCC1)CCN(CC1CC1)CC2 [Example E20, 7-[(3-Cyclohexylpropyl)oxy]-3-(cyclopropylmethyl)-2,3,4,5-tetrahydro-1H-3-benzazepine]	Kb ([3]; read-out: antagonism pKb, histamine H3 functional antagonist assay (method A) (converted)): < 100 nM
–	–	c1ccc(COc2ccc3c(c2)CCN(CC2CC2)CC3)cc1 [Example E19, 3-(Cyclopropylmethyl)-7-[(phenylmethyl)oxy]-2,3,4,5-tetrahydro-1H-3-benzazepine]	Kb ([3]; antagonism pKb, histamine H3 functional antagonist assay (method A)): < 10 nM; Kb [4]: > 316 nM
–	< 1	CCN1CCc2ccc(Oc3ccc(N4CCCC4=O)cn3)cc2CC1 [Example E14, 1-{6-[(3-Ethyl-2,3,4,5-tetrahydro-1H-3-benzazepin-7-yl)oxy]-3-pyridinyl}-2-pyrrolidinone]	–

— patent publication US20080009479A1, “Tetrahydrobenzazepines as Histamine H3 Receptor Ligands” (GLAXO GROUP LIMITED, priority 2004, published 2008)
